From patent US20230181602A1, “TREATMENT OF NON-ALCOHOLIC STEATOHEPATITIS (NASH)” (DURECT CORPORATION, priority 2020, published 2023)
Marks after values point to notes of the source that are not given here.

Key:
[1] = test system: NASH patients with stage 1-3 fibrosis; test: Phase 1b study in NASH patients: safety; format: in vivo, human; conditions: 4 weeks oral
Procedure: A total of 63 patients completed the study with 21 patients per dose group (completion of MRI-PDFF measurement). 25HC3 S sodium was orally administered daily at 50 mg, 150 mg, or 600 mg (300 mg BID). […] Subjects provided written informed consent to participate in the study • 2. Males or females subjects 18 years or older, at the time of signing informed consent • 3. BMI 20-45 kg/m^2 • 4. […] Value of Fibroscan® ≥7 kPa • OR • b. MRE ≥2.75 kPa • *Clinical diagnosis of NASH was defined in this clinical trial as the existence of one or more of the following risk factors for NASH, namely: • a. Type 2 diabetes or elevated fasting blood sugar • b. Abdominal obesity • c. Elevated lipid levels, especially elevated levels of serum triglycerides • d. Hypertension, or • e. Low levels of HDL cholesterol • 5. For serum transaminases, ALT concentration for all patients at the time of screening was >1 and <5 times upper limit of normal (ULN) of the central lab in the absence of another cause of liver disease. If a patient had lab records in the past 6 months, ALT concentrations were <20 U/L female and <30 U/L male. AST concentration for all patients at the time of screening was <5× ULN • 6. […] Platelet counts ≥120,000/mm^3 • 8. […]

[2] = test system: NASH patients with stage 1-3 fibrosis; test: Phase 1b study in NASH patients, 4-week daily oral dosing: pharmacodynamic signals; format: in vivo, human; conditions: for Mean Non-HDL to Baseline / Mean TG to Baseline / Median Non-HDL to Baseline / Median TG to Baseline: day 28 after dosing
Procedure: (§1) A total of 63 patients completed the study with 21 patients per dose group (completion of MRI-PDFF measurement). 25HC3 S sodium was orally administered daily at 50 mg, 150 mg, or 600 mg (300 mg BID). […] Subjects provided written informed consent to participate in the study • 2. Males or females subjects 18 years or older, at the time of signing informed consent • 3. BMI 20-45 kg/m^2 • 4. […] Value of Fibroscan® ≥7 kPa • OR • b. MRE ≥2.75 kPa • *Clinical diagnosis of NASH was defined in this clinical trial as the existence of one or more of the following risk factors for NASH, namely: • a. Type 2 diabetes or elevated fasting blood sugar • b. Abdominal obesity • c. Elevated lipid levels, especially elevated levels of serum triglycerides • d. Hypertension, or • e. Low levels of HDL cholesterol • 5. For serum transaminases, ALT concentration for all patients at the time of screening was >1 and <5 times upper limit of normal (ULN) of the central lab in the absence of another cause of liver disease. If a patient had lab records in the past 6 months, ALT concentrations were <20 U/L female and <30 U/L male. AST concentration for all patients at the time of screening was <5× ULN • 6. […] Platelet counts ≥120,000/mm^3 • 8. Female subjects were eligible for the study if they met the following criteria: • Are not pregnant or nursing • Women of child-bearing potential (defined as females who are not surgically sterile or who are not over the age of 52 and amenorrheic for at least 12 months) must utilize appropriate birth control throughout the study duration. Acceptable methods that may be used are abstinence, birth control pills (“The Pill”) or patch, diaphragm, IUD (coil), vaginal ring, condom, surgical sterilization or progestin implant or injection, or sexual activity limited to a sterile (e.g., vasectomized) male partner • 9. Male participants agreed to consistently and correctly use a condom in combination with one of the above methods of birth control from enrollment to 30 days after the last dose of study medication • 10. Participants were able to comply with dosing and able to complete the study schedule of assessments

[3] = Single dose safety and pharmacokinetic study in subjects with NASH and control healthy subjects; format: in vivo, human
Procedure: The present Example was a randomized, dose ranging, single dose safety and pharmacokinetic study of 25HC3S administered to subjects with NASH and control healthy subjects. […] For each cohort, 10 subjects with NASH were enrolled which were further classified into cirrhotic and non-cirrhotic. Each subject received only one dose of study treatment. The second cohort was dosed after a review of safety and tolerability data from Cohort 1.

NASH patients = conditions: between 50 mg and 200 mg oral dose levels; cited from earlier work
[4] = Phase 1b study in NASH patients: pharmacokinetics; format: in vivo, human; conditions: for CL/F: NASH patients, mean
Procedure: as §1
The pharmacokinetics of administered 25HC3 S was determined.

[5] = Metabolite profiling of plasma, urine and feces after intravenous dose in rats; format: in vivo, Sprague Dawley rats; conditions: intravenous 10 mg/kg, up to 1 hour postdose
Procedure: Nine male Sprague Dawley rats (Group 1) were designated for the pharmacokinetic phase, 3 male Sprague Dawley rats (Group 2) for the excretion mass balance phase, and 7 male Sprague Dawley rats (Group 3) and 9 male Long Evans rats (Group 4) for the tissue distribution phase. All animals received a single intravenous dose of [^14C]-25HC3S at 10 mg/kg and a target radioactivity of 225 μCi/kg. Blood samples were collected from all Group 1 animals at approximately 0.083, 0.25, 0.5, 1, 2, 4, 8, 12, 24, 48, and 72 hours post-dose. Urine and feces were collected from all Group 2 animals periodically through 168 hours post-dose. […] Following blood collection, animals were euthanized by CO2 inhalation and carcasses frozen in a dry ice/hexane bath for processing by quantitative whole body autoradiography. Whole blood, plasma, urine, feces, cage rinse, and cage wash were analyzed for total radioactivity by liquid scintillation counting.
Plasma pools were made from Group 1 rats at the 0.083, 0.25, 0.5, and 1-hour collection time points.
Urine pools were prepared for Group 2 at 0 to 6 and 6 to 12 hours postdose. The largest component present was attributed to the parent 25HC3 S representing about 78% to 93% of the radioactivity. […]

[6] = 50 mg QD, 4 weeks oral, patients with ≥10% reduction in MRI-PDFF, Day 28 vs baseline
[7] = 50 mg QD, 4 weeks oral, patients with ≥10% reduction in MRI-PDFF, Day 28 vs baseline, listed as 25HC3 S
[8] = 300 mg BID, 4 weeks oral, patients with ≥10% reduction in MRI-PDFF, Day 28 vs baseline
[9] = 300 mg BID, 4 weeks oral, patients with ≥10% reduction in MRI-PDFF, Day 28 vs baseline, listed as 25HC3 S
[10] = all on a statin except one outlier (n = 19)
[11] = all patients on a statin (n = 20)

C[C@H](CCCC(C)(C)O)[C@H]1CC[C@H]2[C@@H]3CC=C4C[C@@H](OS(=O)(=O)O)CC[C@]4(C)[C@H]3CC[C@]12C [25HC3S, 5-cholesten-3,25-diol, 3-sulfate]
tolerability ([1]; all three doses (50 mg, 150 mg, 600 mg daily)): well tolerated | drug related serious adverse events ([1]; all three doses): no drug related serious adverse events observed | Non-HDL-C, median change ([2]; 50 mg QD, 4 weeks oral, all patients, Day 28 vs baseline): −8% | APRI score, median change [2, 6]: −27%*** | AST, median change [2, 6]: −24%** | FIB-4 score, median change [2, 6]: −19%** | GGT, median change [2, 6]: −13%*** | APRI score, median change [2, 7]: −27% | AST, median change [2, 7]: −24% | FIB-4 score, median change [2, 7]: −19% | GGT, median change [2, 7]: −13% | GGT, median change ([2]; 150 mg QD, 4 weeks oral, all patients, Day 28 vs baseline): −1% | APRI score, median change [2, 8]: −36%*** | AST, median change [2, 8]: −39%*** | FIB-4 score, median change [2, 8]: −21%*** | APRI score, median change [2, 9]: −36% | AST, median change [2, 9]: −39% | FIB-4 score, median change [2, 9]: −21% | Mean Non-HDL to Baseline [2, 10]: −11% | Mean TG to Baseline [2, 10]: −10% | Median Non-HDL to Baseline [2, 10]: −10% | Median TG to Baseline [2, 10]: −9% | Mean Non-HDL to Baseline [2, 11]: −9% | Mean TG to Baseline [2, 11]: −2% | Median Non-HDL to Baseline [2, 11]: −9% | Median TG to Baseline [2, 11]: −6% | enzyme levels (e.g., ALT, AST, GGT) ([2]; high dose (300 mg BID)): improved enzyme levels | patients who showed ≥10% liver fat reduction from baseline as measured by MRI-PDFF ([2]; in each dose group (50 mg, 150 mg, 600 mg daily), after 4-week dosing): 43% | serum triglycerides, median reduction from baseline ([2]; patients with elevated baseline triglycerides (≥200 mg/dL; n=16) across all dose groups, day 28): −24% | reduction in serum triglycerides ([2]; patients with elevated baseline triglycerides (≥200 mg/dL; n=16) across all dose groups, day 28 from baseline): 24% | difference between healthy and NASH subjects in pharmacokinetics (Cmax and AUC) ([3]; 50 mg and 200 mg): no clear difference | increase of AUC0-last, AUCinf and Cmax with increasing dose ([3]; 50 mg to 200 mg): less than proportional | geometric mean AUC0-12 and AUC0-last, NASH versus healthy subjects ([3]; Cohort 1 (50 mg)): similar | AUC0-inf, higher in NASH subjects than healthy ([3]; Cohort 2 (200 mg)): approximately 20% | increase of geometric mean Cmax in NASH subjects over healthy subjects ([3]; Cohorts 1 and 2): 18-24% | increase in both Cmax and AUC parameters for a four-fold increase in dose ([3]; NASH subjects, 50 mg to 200 mg): three-fold | increase in mean Cmax for a four-fold increase in dose ([3]; healthy subjects, 50 mg to 200 mg): three-fold | Mean % AUCexp ([3]; human, in vivo): low | dose-dependent changes of biological responses (NASH patients): no dose-dependent changes of biological responses | CL/F ([4]; 50 mg QD oral): 150.6 L/h | dose dependence of PK parameters ([4]; 50 mg, 150 mg, 600 mg daily): dose dependent | CL/F ([4]; 150 mg QD oral): 176.6 L/h | CL/F ([4]; 300 mg BID oral): 166.2 L/h | PK parameters after repeat dosing versus single dose ([4]; 4-week daily oral dosing): comparable to those after a single dose | share of the exposure (AUC) to related radioactivity in plasma [5]: approximately 54%
